Data on 5 cell lines can be found in the supplement of paper PMC9663587.

Compound in one assay: CC(=O)c1c(C)c2cnc(Nc3ccc(N4CCN(CCOCCOCCOCCNC(=O)COc5cccc6c5C(=O)N(C5CCC(=O)NC5=O)C6=O)CC4)cn3)nc2n(C2CCCC2)c1=O [BSJ-03-123]
As to the kind of experiment: increase in dead-cell fraction, 72 h; higher = more death.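 Note: breast cancer cell lines in 384-well plates, stained with Hoechst plus LIVE/DEAD far red dye and imaged, cells above an LDR intensity threshold counted dead, Hoechst-negative corpses included.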 The settings on record: 0.03162 µM.
For the cell line MCF10A (GM), the “increase in dead-cell fraction” value is 0.0037.

As for PDX1206, the “increase in dead-cell fraction” value was -0.0021.

The same assay, now with this note: 0.1 µM.
With 184A1, the “increase in dead-cell fraction” value was found to be 0.0423.

For the cell line AU565, the “increase in dead-cell fraction” value amounted to 0.0078.

In the case of BT20, the “increase in dead-cell fraction” value was 0.0041.

MCF10A (GM): the “increase in dead-cell fraction” value came to 0.0042.

As to PDX1206, the “increase in dead-cell fraction” value was -0.0156.

Staying with this assay, now noted: 0.3162 µM.
With 184A1, the “increase in dead-cell fraction” value amounted to 0.0318.

For AU565, the “increase in dead-cell fraction” value amounted to 0.0057.

As for BT20, the “increase in dead-cell fraction” value was 0.0071.

Turning to MCF10A (GM), the “increase in dead-cell fraction” value amounted to 0.0033.

With PDX1206, the “increase in dead-cell fraction” value was -0.0027.

The assay is the same for the next values; noted with them: 1 µM.
184A1: the “increase in dead-cell fraction” value is 0.0505.

Take AU565: the “increase in dead-cell fraction” value is 0.0399.

With BT20, the “increase in dead-cell fraction” value is 0.0076.

For MCF10A (GM), the “increase in dead-cell fraction” value turned out to be 0.0209.

Regarding PDX1206, the “increase in dead-cell fraction” value is -0.0025.

Still in this assay, the particulars now being: 3.162 µM.
As for 184A1, the “increase in dead-cell fraction” value was determined as 0.0581.

For AU565, the “increase in dead-cell fraction” value was determined as 0.0336.

Regarding BT20, the “increase in dead-cell fraction” value came out at 0.008.

Take MCF10A (GM): the “increase in dead-cell fraction” value is 0.0255.

As for PDX1206, the “increase in dead-cell fraction” value was -0.0175.

The assay is the same for the next values; noted with them: 10 µM.
On to 184A1, for which the “increase in dead-cell fraction” value is 0.179.

With AU565, the “increase in dead-cell fraction” value is 0.306.

On to BT20, for which the “increase in dead-cell fraction” value was 0.0323.

Consider MCF10A (GM), for which the “increase in dead-cell fraction” value was 0.455.

PDX1206: the “increase in dead-cell fraction” value came out at 0.217.

Compound in another assay: CN(C)C(=O)c1cc2cnc(Nc3ccc(N4CCNCC4)cn3)nc2n1C1CCCC1 [LEE011/Ribociclib]
The assay is described as above. The settings on record: 0.001 µM.
Turning to 184A1, the “increase in dead-cell fraction” value worked out at 0.0076.

Regarding AU565, the “increase in dead-cell fraction” value is -0.0067.

For the cell line BT20, the “increase in dead-cell fraction” value was 0.002.

For MCF10A (GM), the “increase in dead-cell fraction” value was 0.0013.

For PDX1206, the “increase in dead-cell fraction” value is -0.0167.

Still in this assay, the particulars now being: 0.003162 µM.
As for 184A1, the “increase in dead-cell fraction” value was 0.0015.

As for AU565, the “increase in dead-cell fraction” value is -0.0027.

Regarding BT20, the “increase in dead-cell fraction” value came to 0.0029.

Turning to MCF10A (GM), the “increase in dead-cell fraction” value worked out at 0.0004.

Turning to PDX1206, the “increase in dead-cell fraction” value was -0.0241.

The assay is the same for the next values; noted with them: 0.01 µM.
Regarding 184A1, the “increase in dead-cell fraction” value was determined as 0.0139.

Consider AU565, for which the “increase in dead-cell fraction” value came to 0.0258.

For BT20, the “increase in dead-cell fraction” value was determined as 0.0024.

In the case of MCF10A (GM), the “increase in dead-cell fraction” value was 0.002.

With PDX1206, the “increase in dead-cell fraction” value was found to be 0.009.

The assay is the same for the next values; noted with them: 0.03162 µM.
Consider 184A1, for which the “increase in dead-cell fraction” value was 0.0172.

With AU565, the “increase in dead-cell fraction” value is 0.0105.

For the cell line BT20, the “increase in dead-cell fraction” value was 0.0037.

In the case of MCF10A (GM), the “increase in dead-cell fraction” value worked out at 0.0019.

PDX1206: the “increase in dead-cell fraction” value was -0.0043.

The same assay, now with this note: 0.1 µM.
With 184A1, the “increase in dead-cell fraction” value was determined as 0.0129.

Take AU565: the “increase in dead-cell fraction” value is 0.0143.

For BT20, the “increase in dead-cell fraction” value came to 0.0051.

In the case of MCF10A (GM), the “increase in dead-cell fraction” value was determined as 0.0026.

As for PDX1206, the “increase in dead-cell fraction” value is -0.0009.

The same assay, now with this note: 0.3162 µM.
Take 184A1: the “increase in dead-cell fraction” value was determined as 0.0139.

With AU565, the “increase in dead-cell fraction” value was 0.0331.

In the case of BT20, the “increase in dead-cell fraction” value was found to be 0.0057.

As for MCF10A (GM), the “increase in dead-cell fraction” value came to 0.0035.

For the cell line PDX1206, the “increase in dead-cell fraction” value worked out at 0.0111.

The same assay, now with this note: 1 µM.
As for 184A1, the “increase in dead-cell fraction” value stood at 0.0153.

As for AU565, the “increase in dead-cell fraction” value is 0.0469.

For BT20, the “increase in dead-cell fraction” value is 0.0086.

On to MCF10A (GM), for which the “increase in dead-cell fraction” value was 0.0035.

For the cell line PDX1206, the “increase in dead-cell fraction” value is -0.0007.

The same assay, now with this note: 3.162 µM.
Turning to 184A1, the “increase in dead-cell fraction” value is 0.015.

As to AU565, the “increase in dead-cell fraction” value was determined as 0.0463.

Take BT20: the “increase in dead-cell fraction” value was 0.0145.

As to MCF10A (GM), the “increase in dead-cell fraction” value is 0.0073.

On to PDX1206, for which the “increase in dead-cell fraction” value turned out to be 0.0201.

Still in this assay, the particulars now being: 10 µM.
Regarding 184A1, the “increase in dead-cell fraction” value worked out at 0.041.

AU565: the “increase in dead-cell fraction” value was determined as 0.0439.

In the case of BT20, the “increase in dead-cell fraction” value came out at 0.0266.

Turning to MCF10A (GM), the “increase in dead-cell fraction” value is 0.0229.

For PDX1206, the “increase in dead-cell fraction” value worked out at 0.0115.

Compound in a further assay: CCOc1cc2ncc(C#N)c(Nc3ccc(OCc4ccccn4)c(Cl)c3)c2cc1NC(=O)/C=C/CN(C)C [Neratinib/HKI272]
The assay is described as above. The settings on record: 0.0003162 µM.
Regarding 184A1, the “increase in dead-cell fraction” value is -0.004.
